# Assay results from patent publication US20210393621A1, “COMBINATION SEROTONIN SPECIFIC REUPTAKE INHIBITOR AND SEROTONIN 1A RECEPTOR PARTIAL AGONIST FOR REDUCING L-DOPA-INDUCED DYSKINESIA” (The Research Foundation for The State University of new York, priority 2018, published 2021).
# Entries after “also recorded” stand apart in the source; their conditions may differ. Like-named read-outs stand apart in the source and are kept apart here.
# Columns and labels:
# [1] = system: extracellular 5-HT, dopamine and norepinephrine; conditions: cited from earlier work; for maximal increase of extracellular 5-HT: rats, acute systemic injection, measured 3 h after injection
# 5-HT1D = 5-HT1D (Homo sapiens, UniProt P28221); conditions: cited from earlier work
# [2] = system: unilateral 6-OHDA-lesioned rats; assay: Example 2: L-DOPA-induced dyskinesias (LIDs) scoring; assay type: in vivo, Sprague-Dawley rats; conditions: pretreatment with vilazodone 10 mg/kg or escitalopram 12.5 mg/kg before L-DOPA 5 mg/kg, 2 weeks; hydrochloride
# Method: 6-OHDA-induced dopaminergic lesions: Adult male Sprague-Dawley rats were randomly assigned to groups receiving either a 6-OHDA or sham lesion. […] [[…] 2019]. […] Rats were treated for 5 consecutive days/week (Mon-Fri), for 2 weeks. […] All rats were evaluated three times per week for the presence of L-DOPA-induced dyskinesias (LIDs) (Wed-Fri) and once for the stepping test (Tue). […] Scores were given over 1 min epochs and classified as axial, limb, orolingual and locomotive. […] Arrows=inhibitory input; dashed arrows=compromised function. The severity of each LID was scored using a standard scale. Each dyskinetic behavior was given an intensity and frequency score, which were then multiplied. The average sum of the products of each LID was determined in each animal.
# [3] = system: 6-OHDA-lesioned hemi-parkinsonian rats; assay: Experiment 1: AIMs, established LID in L-DOPA-primed hemi-parkinsonian rats; assay type: in vivo, Sprague-Dawley rats
# SERT = molecular target: T1, SERT (Rattus norvegicus, UniProt P31652); conditions: rat cortex and hippocampus ex vivo, cited from earlier work
# T1 construct: 50% occupancy at 1-3 mg/kg in rat cortex and hippocampus ex vivo; from tissue; host or cells: rat cortex and hippocampus
# [4] = molecular target: norepinephrine transporter (NET) (Homo sapiens, UniProt P23975); conditions: read-out: Ki for NET (norepinephrine reuptake site); cited from earlier work
# 5-HT2A = 5-HT2A (Homo sapiens, UniProt P28223); conditions: cited from earlier work
# [5] = molecular target: dopamine transporter (DAT) (Homo sapiens, UniProt Q01959); conditions: read-out: Ki for DAT (dopamine reuptake site); cited from earlier work
# [6] = cited from earlier work
# [7] = system: L-DOPA-primed 6-OHDA-lesioned rats; assay: Experiment 3: AIMs with 5-HT1AR or 5-HT1BR antagonist before Vilazodone and L-DOPA; assay type: in vivo, Sprague-Dawley rats
# Method: In each study, the LD-primed rats received (FIG. 4A) the 5-HT1AR antagonist WAY100635 [WAY; 0 or 0.5 mg/kg, s.c.] or (FIG. 4B) the 5-HT1BR antagonist NAS [NAS; 0 or 0.3 mg/kg, s.c.]) 5 min prior to VZD (0 or 10 mg/kg, s.c.) injected 5 min prior to LD (6 mg/kg, s.c.) in a within-subjects counterbalanced design. ALO AIMs were evaluated and are shown for every 10 min for 3 h after LD administration.
# All 6-OHDA-lesioned rats (n=17) were tested on the FAS prior to treatment regimens to establish baseline motor performance. Three-weeks post-surgery, all rats were primed with L-DOPA (6 mg/kg, s.c.) for 14 days.
# Beginning 10 min post-treatment, a trained and blinded observer assigned a severity score (0-4) to each of the ALO AIMs based on 1 min ratings every 10 min for 3 h: 0, not present; 1, present from 1-29 s; 2, present 30-59 s; 3, present all 60 s, but interruptible by a cylinder tap; 4, present 60 s and not interruptible by a cylinder tap.
# 5-HT1A receptor = molecular target: T2, 5-HT1A receptor (Homo sapiens, UniProt P08908); design: expressed in transfected cells; host or cells: SF9 cells; conditions: 5-HT1A receptor expressed in SF9 cells; cited from earlier work
# T2 sequence (P08908 1-422): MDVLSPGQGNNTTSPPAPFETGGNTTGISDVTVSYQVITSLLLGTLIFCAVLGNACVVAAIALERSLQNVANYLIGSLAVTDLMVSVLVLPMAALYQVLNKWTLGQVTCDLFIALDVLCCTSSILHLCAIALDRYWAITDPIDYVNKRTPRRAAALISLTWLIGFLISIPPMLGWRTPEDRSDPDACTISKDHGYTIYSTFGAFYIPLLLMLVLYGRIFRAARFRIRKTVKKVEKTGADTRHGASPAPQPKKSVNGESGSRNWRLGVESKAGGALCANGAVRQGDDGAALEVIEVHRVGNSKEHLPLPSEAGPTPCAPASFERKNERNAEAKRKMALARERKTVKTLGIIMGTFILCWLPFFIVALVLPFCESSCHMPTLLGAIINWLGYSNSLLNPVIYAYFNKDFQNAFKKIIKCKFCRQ
# [8] = system: striatal c-Fos, PPD, PPE, PPT and 5-HT1AR mRNA; assay: Experiment 2: real-time RT-PCR of striatal gene expression
# [9] = administered with either a fatty or light meal
# [10] = lesioned striata, VZD 0, 10 or 20 mg/kg + L-DOPA 6 mg/kg daily, day 23, 60 min post-injection
# T1 sequence (P31652 whole entry): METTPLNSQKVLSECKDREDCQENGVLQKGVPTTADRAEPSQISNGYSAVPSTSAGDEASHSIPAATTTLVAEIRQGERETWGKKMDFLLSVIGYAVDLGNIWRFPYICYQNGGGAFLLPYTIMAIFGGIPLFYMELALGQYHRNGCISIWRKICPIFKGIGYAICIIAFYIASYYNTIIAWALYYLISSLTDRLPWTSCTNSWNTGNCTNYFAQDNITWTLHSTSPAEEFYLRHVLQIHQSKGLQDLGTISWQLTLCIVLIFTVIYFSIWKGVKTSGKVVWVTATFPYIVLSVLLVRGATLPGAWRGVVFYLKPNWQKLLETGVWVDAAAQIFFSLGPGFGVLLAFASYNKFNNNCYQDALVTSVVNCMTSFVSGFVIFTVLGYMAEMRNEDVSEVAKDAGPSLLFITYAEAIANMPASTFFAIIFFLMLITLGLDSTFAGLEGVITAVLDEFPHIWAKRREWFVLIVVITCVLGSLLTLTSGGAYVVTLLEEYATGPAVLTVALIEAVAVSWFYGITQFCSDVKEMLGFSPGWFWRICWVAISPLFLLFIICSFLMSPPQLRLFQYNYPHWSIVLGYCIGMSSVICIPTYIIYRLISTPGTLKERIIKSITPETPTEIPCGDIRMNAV
# Chain of norepinephrine transporter (NET) (P23975 whole entry): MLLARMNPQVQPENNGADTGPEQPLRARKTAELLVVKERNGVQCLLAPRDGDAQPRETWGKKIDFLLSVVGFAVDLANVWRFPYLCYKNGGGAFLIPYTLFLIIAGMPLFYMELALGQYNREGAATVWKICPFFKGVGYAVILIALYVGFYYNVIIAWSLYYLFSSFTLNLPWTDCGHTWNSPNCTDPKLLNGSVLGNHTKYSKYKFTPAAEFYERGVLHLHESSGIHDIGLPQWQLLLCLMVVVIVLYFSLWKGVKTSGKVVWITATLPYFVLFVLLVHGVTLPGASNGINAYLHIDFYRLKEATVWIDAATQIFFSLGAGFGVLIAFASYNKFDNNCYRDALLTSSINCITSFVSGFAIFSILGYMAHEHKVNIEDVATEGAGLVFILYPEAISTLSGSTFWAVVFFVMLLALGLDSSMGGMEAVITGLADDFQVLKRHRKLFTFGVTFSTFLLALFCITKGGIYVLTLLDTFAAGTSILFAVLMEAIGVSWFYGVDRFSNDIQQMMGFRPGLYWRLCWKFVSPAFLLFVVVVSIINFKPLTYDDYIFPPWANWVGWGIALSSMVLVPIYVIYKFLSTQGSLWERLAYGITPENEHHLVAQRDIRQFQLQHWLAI
# Chain of 5-HT2A (P28223 whole entry, species assumed): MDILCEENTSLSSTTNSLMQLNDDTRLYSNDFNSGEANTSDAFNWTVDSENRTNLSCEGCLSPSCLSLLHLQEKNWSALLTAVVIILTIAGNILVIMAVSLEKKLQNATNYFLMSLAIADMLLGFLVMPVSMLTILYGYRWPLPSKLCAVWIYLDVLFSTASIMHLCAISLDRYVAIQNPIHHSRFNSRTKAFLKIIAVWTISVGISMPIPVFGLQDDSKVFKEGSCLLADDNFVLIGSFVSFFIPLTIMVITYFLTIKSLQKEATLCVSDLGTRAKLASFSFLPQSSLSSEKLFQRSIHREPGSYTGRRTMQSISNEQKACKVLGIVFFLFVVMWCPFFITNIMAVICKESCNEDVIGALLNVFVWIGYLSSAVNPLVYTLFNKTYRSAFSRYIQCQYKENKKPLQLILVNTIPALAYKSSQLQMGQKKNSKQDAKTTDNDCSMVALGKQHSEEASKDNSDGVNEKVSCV
# Chain of dopamine transporter (DAT) (Q01959 whole entry, species assumed): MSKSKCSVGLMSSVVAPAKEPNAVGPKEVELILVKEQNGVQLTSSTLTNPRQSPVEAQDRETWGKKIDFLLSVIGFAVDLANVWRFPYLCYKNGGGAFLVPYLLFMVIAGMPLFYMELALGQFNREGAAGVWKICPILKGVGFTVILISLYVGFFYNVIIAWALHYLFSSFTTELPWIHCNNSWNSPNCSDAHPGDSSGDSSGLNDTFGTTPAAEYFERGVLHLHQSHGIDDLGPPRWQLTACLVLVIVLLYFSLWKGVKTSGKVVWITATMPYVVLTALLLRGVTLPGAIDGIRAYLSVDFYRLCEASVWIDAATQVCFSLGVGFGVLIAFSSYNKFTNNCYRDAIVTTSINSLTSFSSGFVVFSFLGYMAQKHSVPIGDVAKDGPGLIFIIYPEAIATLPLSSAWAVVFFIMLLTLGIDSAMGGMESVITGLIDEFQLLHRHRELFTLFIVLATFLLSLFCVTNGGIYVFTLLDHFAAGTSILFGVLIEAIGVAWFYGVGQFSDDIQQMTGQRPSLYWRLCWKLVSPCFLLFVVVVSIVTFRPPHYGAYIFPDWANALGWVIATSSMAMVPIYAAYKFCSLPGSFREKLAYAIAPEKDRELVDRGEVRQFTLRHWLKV
# Chain of 5-HT1D (P28221 whole entry, species assumed): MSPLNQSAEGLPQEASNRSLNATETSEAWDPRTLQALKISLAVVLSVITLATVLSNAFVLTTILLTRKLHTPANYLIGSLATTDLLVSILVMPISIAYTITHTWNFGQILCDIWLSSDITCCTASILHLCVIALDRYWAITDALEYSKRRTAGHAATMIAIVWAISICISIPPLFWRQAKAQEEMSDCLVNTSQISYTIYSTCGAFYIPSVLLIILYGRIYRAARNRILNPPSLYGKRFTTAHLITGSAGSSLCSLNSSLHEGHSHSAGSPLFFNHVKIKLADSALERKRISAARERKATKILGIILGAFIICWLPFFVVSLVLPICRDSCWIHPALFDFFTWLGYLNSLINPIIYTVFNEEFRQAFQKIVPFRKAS
smiles,measurement,setting,value
"Cl.N#Cc1ccc2[nH]cc(CCCCN3CCN(c4ccc5oc(C(N)=O)cc5c4)CC3)c2c1 [Vilazodone, 5-{4-[4-(5-cyano-3-indolyl)-butyl]-1-piperazinyl}-benzofuran-2-carboxamide hydrochloride]",maximal increase of extracellular 5-HT,[1]; frontal cortex,527%
same,extracellular dopamine and norepinephrine,"[1]; rat brain, vilazodone 1 and 10 mg/kg",caused no change
same,maximal increase of extracellular 5-HT,[1]; ventral hippocampus,558%
same,affinity for 5-HT1D,5-HT1D,negligible affinity
same,LIDs score / severity,[2],most significant effect on attenuating LIDs; also recorded: significantly reduced LIDs
same,"anti-LID efficacy, high versus low dose","[3]; 20 mg/kg vs 10 mg/kg, initially, dissipated after the first week",greater anti-LID efficacy than the lower dose
same,"ALO AIMs, established LID","[3]; VZD 10 or 20 mg/kg s.c. 5 min prior to L-DOPA 6 mg/kg, vs Vilazodone (0 mg/kg)+L-DOPA (6 mg/kg), from first day throughout treatment",dramatically reduced AIMs
same,"side effects, like 5-HT syndrome","[3]; chronic Vilazodone + L-DOPA in rats, any time point",weren't observed at any time point
same,reduction of development and expression of LID compared with Amantadine,[3]; validated rodent model,more effective than Amantadine
same,SERT occupancy,SERT; 10 mg/kg,100%
same,SERT occupancy,SERT; 1-3 mg/kg,50%
same,Ki,[4],0.056 µM
same,affinity for 5-HT2A,5-HT2A,negligible affinity
same,Ki,[5],0.037 µM
same,AUC increase,[6]; [9],64%-85%
same,Cmax increase,[6]; [9],147%-160%
same,bioavailability,[6]; under fed conditions,72%
same,"ALO AIMs, 5-HT1BR study","[7]; NAS-181 0 or 3.0 mg/kg, then VZD 0 or 10 mg/kg, then L-DOPA 6 mg/kg, s.c.",significantly reduced ALO AIMs
same,"LID duration, time course",[7]; VZD 10 mg/kg + L-DOPA 6 mg/kg,little effect on LID duration
same,"peak dyskinesia, time course",[7]; VZD 10 mg/kg + L-DOPA 6 mg/kg,reduced peak dyskinesia
same,"summed ALO AIMs, 5-HT1AR study","[7]; WAY100635 0 or 0.5 mg/kg, then VZD 0 or 10 mg/kg, then L-DOPA 6 mg/kg, s.c.",significantly reduced ALO AIMs
same,increase of [35S]GTPγS binding compared to vehicle,5-HT1A receptor,fourfold
same,striatal PPT mRNA,[8]; FIG. 6B,significantly reduced it
same,striatal 5-HT1AR mRNA,[8]; day 23,did not affect striatal 5-HT1AR mRNA
same,striatal PPE mRNA,"[8]; lesioned striata, L-DOPA 6 mg/kg, Vilazodone 20 mg/kg","modestly, though significantly reduced"
same,striatal PPD mRNA,[8]; [10],dose-dependently attenuated
same,striatal c-Fos mRNA,[8]; [10],diminished
